Results reported in US20100016163A1, “Adjuvant and dispersant formulations for pesticidal applications” (priority 2007, published 2010).
Where two headings read alike, the source gives them in different places.

Tests used:
[1] = Surface tension, Gibbs isotherm (Kibron μTrough S); assay type: physicochemical; conditions: FIG. 3
From the text: The surface tension of a solution can give important information about its behavior as a surfactant. Measuring the surface tension of a series of aqueous solutions of a molecule and plotting the measured surface tension results versus the logarithm of the concentrations of the series of aqueous solutions yields a plot known as a Gibbs isotherm. From the Gibbs isotherm, one can obtain the critical micelle concentration (CMC) of a surfactant as well as the surface tension at the CMC, two parameters that can indicate the behavior of a surfactant.
For each molecule studied, 14 solutions were prepared so that each solution was half the concentration of the previous solution. Another solution that consisted of only deionized water was used as a reference. Therefore, a total of 15 solutions were studied for each molecule.

[2] = test system: Redroot pigweed; test: Field trial Example 7, % kill; assay type: in vivo; conditions: isopropyl ammonium glyphosate 360 g a.e./l
Experimental: (§1) The C14 DMAPA MeCl Esterquat formulation was prepared as follows: About 32.3 grams of a solution of the isopropyl ammonium salt of glyphosate, which was about 46.5% by weight acid equivalent (a.e.) of glyphosate and about 6.2 grams of deionized water, were added in a 4-ounce jar. Then, about 7.5 grams of the C14 DMAPA MeCl Esterquat and about 4 grams of propylene glycol were slowly added to the jar with stirring.
(§2) Samples of the formulations as made above were applied to subject plants at two application rates, 90% and 45% of the label rate of RoundUp® Ultra, available from Monsanto Company, St. Louis, Mo. RoundUp® Ultra contains about 360 g a.e./l of isopropyl ammonium glyphosate salt and about 15% by weight of a blend of surfactants. The precise identity of the surfactants has not been disclosed.
(§3) Eight plant species were selected for the study. They include (1) Bamyardgrass, (2) Redroot pigweed, (3) Morning glory ivyleaf, (4) Sicklepod, (5) Panicum, (6) Crabgrass, (7) Velvetleaf, and (8) Sunflower. The tests were performed in a randomized complete block design with 5 replicates of each species of plant. Plants were grown in square plastic pots, 3.75 inches×3.75 inches and 3.125 inches deep. Prior to treatment, 5 replicate pots were indiscriminately selected for each treatment and plant species. Treatments were applied as foliar applications with a hand pump sprayer equipped with 1 nozzle calibrated to deliver 15 gallons per acre. All spraying tests included a set of 5 untreated control plants from each species.

[3] = test system: Panicum, fall; test: Field trial Example 7, % kill; assay type: in vivo; conditions: isopropyl ammonium glyphosate 360 g a.e./l
Experimental: as §1, §2, §3

[4] = test system: Crabgrass; test: Field trial Example 7, % kill; assay type: in vivo; conditions: isopropyl ammonium glyphosate 360 g a.e./l
Experimental: as §1, §2, §3

[5] = test system: Sunflower; test: Field trial Example 7, % kill; assay type: in vivo; conditions: isopropyl ammonium glyphosate 360 g a.e./l
Experimental: as §1, §2, §3

[6] = test system: Velvetleaf; test: Field trial Example 7, % kill; assay type: in vivo; conditions: isopropyl ammonium glyphosate 360 g a.e./l
Experimental: as §1, §2, §3

[7] = test system: Sicklepod; test: Field trial Example 7, % kill; assay type: in vivo; conditions: isopropyl ammonium glyphosate 360 g a.e./l
Experimental: as §1, §2, §3

[8] = test system: Barnyardgrass; test: Field trial Example 7, % kill; assay type: in vivo; conditions: isopropyl ammonium glyphosate 360 g a.e./l
Experimental: as §1, §2, §3

[9] = test system: Morning glory, ivyleaf; test: Field trial Example 7, % kill; assay type: in vivo; conditions: isopropyl ammonium glyphosate 360 g a.e./l
Experimental: as §1, §2, §3

[10] = test system: all 8 species; test: Field trial of phytotoxicity enhancement, isopropyl ammonium glyphosate formulations (Example 7), sum over species; assay type: in vivo; conditions: foliar, isopropyl ammonium glyphosate 360 g a.e./l, 15% surfactant
Experimental: as §1, §2
as §3, with “Treatments were applied as foliar applications with a hand pump sprayer equipped with 1 nozzle calibrated to deliver 15 gallons per acre. All spraying tests included a set of 5 untreated control plants from each species.” left out

[11] = acid form, 25° C., cited from earlier work

In the case of `CCCCCCCCCCCCCC(=O)NCCC[N+](C)(C)C.[Cl-]` [C14 DMAPA MeCl Esterquat], the “surface activity, compared with C14 DMAPA MeCl Esterquat” value [1] is reported as “higher surface activity”, the “% kill” value ([2]; high (90%) application rate) is reported as 100% and the “% kill” value ([2]; low (45%) application rate) is reported as 100%. The “% kill” value ([3]; high (90%) application rate) was 95%, the “% kill” value ([3]; low (45%) application rate) was 90% and the “% kill” value ([4]; high (90%) application rate) was 100%. The “% kill” value ([4]; low (45%) application rate) was 100%, the “% kill” value ([5]; high (90%) application rate) was 100% and the “% kill” value ([5]; low (45%) application rate) was 100%. The “% kill” value ([6]; high (90%) application rate) was 96%, the “% kill” value ([6]; low (45%) application rate) was 96% and the “% kill” value ([7]; high (90%) application rate) was 33%. For the same molecule, the “% kill” value ([7]; low (45%) application rate) was 22%, the “% kill” value ([8]; high (90%) application rate) was 100% and the “% kill” value ([8]; low (45%) application rate) was 99%. For the same molecule, the “% kill” value ([9]; high (90%) application rate) was 84%, the “% kill” value ([9]; low (45%) application rate) was 53% and the “Sum of % kill of all 8 species at low (45%) application rate” value ([10]; 45% of RoundUp Ultra label rate) was 660%. For the same molecule, the “Sum of % kill of all 8 species at high (90%) application rate” value ([10]; 90% of RoundUp Ultra label rate) was 708%.

In the case of `O=C(O)CNCP(=O)(O)O` [Glyphosate, N-(phosphonomethyl)glycine], the solubility in water [11] is listed as 1.16 % by weight and the solubility in water ([11]; listed as glyphosate) is listed as “about 1.16 % by weight”.
